Reference: ChEMBL document CHEMBL1153018, “Synthesis of pochoxime prodrugs as potent HSP90 inhibitors” (Bioorg Med Chem Lett, 2009)
Calls of active or inactive are those of the source. The rule behind the calls is not given here.

How the values were obtained:
Mus musculus [1] = assay: Hepatotoxicity in ICR-SCID mouse liver assessed as bilirubin level at 100 mg/kg administered 3 times per week for 4 weeks measured after 24 hrs of last dose relative to untreated control; type: toxicity, organism-based; parameters: dose 100 mg/kg; conditions: in vivo
NCI-N87 = assay: Growth inhibition of human NCI-N87 cells assessed as ATP level after 4 days; type: functional; conditions: NCI-N87, 96 h
[2] = Drug level in tumor of human BT474 cells xenografted in ICR-SCID mouse at 200 mg/kg, ip administered after 3 weeks tumor implantation measured after 12 hrs; type: ADME, organism-based, Neoplasm, BT-474; parameters: dose 200 mg/kg, route intraperitoneal; conditions: tumor (human BT474 xenograft), read-out: Drug uptake
HCT-116 = assay: Growth inhibition of human HCT116 cells assessed as ATP level after 4 days; type: functional; conditions: HCT-116, 96 h
NSCLC = assay: Growth inhibition of human NSCLC cells assessed as ATP level after 4 days; type: functional, cell-based
[3] = Solubility in water; type: physicochemical; conditions: buffer
NCI-H1975 [4] = assay: Induction of mutant c-Raf degradation in human tarceva and iressa-resistant NCI-H1975 cells at 20 to 500 nM by Western blotting; type: functional, cell-based
[5] = Drug level in tumor of human BT474 cells xenografted in ICR-SCID mouse at 150 mg/kg, ip administered after 3 weeks tumor implantation measured after 48 hrs; type: ADME, organism-based, Neoplasm, BT-474; parameters: dose 150 mg/kg, route intraperitoneal; conditions: tumor (human BT474 xenograft), read-out: Drug uptake
HCC827 [6] = assay: Induction of mutant c-Raf degradation in human tarceva and iressa-resistant HCC827 cells at 20 to 500 nM by Western blotting; type: functional, cell-based
[7] = Oral bioavailability in mouse; type: ADME, organism-based; conditions: in vivo
Mus musculus [8] = assay: Hepatotoxicity in ICR-SCID mouse liver assessed as alkaline phosphatase level at 150 mg/kg administered 3 times per week for 4 weeks measured after 24 hrs of last dose relative to untreated control; type: toxicity, organism-based; parameters: dose 150 mg/kg; conditions: in vivo
[9] = Drug level in tumor of human BT474 cells xenografted in ICR-SCID mouse at 200 mg/kg, ip administered after 3 weeks tumor implantation measured after 6 hrs; type: ADME, organism-based, Neoplasm, BT-474; parameters: dose 200 mg/kg, route intraperitoneal; conditions: tumor (human BT474 xenograft), read-out: Drug uptake
[10] = Drug level in tumor of human BT474 cells xenografted in ICR-SCID mouse at 100 mg/kg, ip administered after 3 weeks tumor implantation measured after 24 hrs; type: ADME, organism-based, Neoplasm, BT-474; parameters: dose 100 mg/kg, route intraperitoneal; conditions: tumor (human BT474 xenograft), read-out: Drug uptake
NCI-H1975 [11] = assay: Induction of mutant EGFR degradation in human tarceva and iressa-resistant NCI-H1975 cells at 20 to 500 nM by Western blotting; type: functional, cell-based
NCI-H1975 [12] = assay: Induction of mutant Cyclin D degradation in human tarceva and iressa-resistant NCI-H1975 cells at 20 to 500 nM by Western blotting; type: functional, cell-based
Mus musculus [13] = assay: Hepatotoxicity in ICR-SCID mouse liver assessed as aspartate aminotransferase level at 150 mg/kg administered 3 times per week for 4 weeks measured after 24 hrs of last dose relative to untreated control; type: toxicity, organism-based; parameters: dose 150 mg/kg; conditions: in vivo
Mus musculus [14] = assay: Toxicity in ICR-SCID mouse kidney assessed as BUN level at 100 mg/kg administered 3 times per week for 4 weeks measured after 24 hrs of last dose relative to untreated control; type: organism-based; parameters: dose 100 mg/kg; conditions: in vivo
Mus musculus [15] = assay: Toxicity in ICR-SCID mouse kidney assessed as creatinine level at 150 mg/kg administered 3 times per week for 4 weeks measured after 24 hrs of last dose relative to untreated control; type: organism-based; parameters: dose 150 mg/kg; conditions: in vivo
Mus musculus [16] = assay: Toxicity in ICR-SCID mouse kidney assessed as BUN level at 150 mg/kg administered 3 times per week for 4 weeks measured after 24 hrs of last dose relative to untreated control; type: organism-based; parameters: dose 150 mg/kg; conditions: in vivo
Mus musculus [17] = assay: Hepatotoxicity in ICR-SCID mouse liver assessed as alkaline phosphatase level at 100 mg/kg administered 3 times per week for 4 weeks measured after 24 hrs of last dose relative to untreated control; type: toxicity, organism-based; parameters: dose 100 mg/kg; conditions: in vivo
NCI-H1975 [18] = assay: Induction of mutant Met degradation in human tarceva and iressa-resistant NCI-H1975 cells at 20 to 500 nM by Western blotting; type: functional, cell-based
[19] = Drug level in tumor of human BT474 cells xenografted in ICR-SCID mouse at 100 mg/kg, ip administered after 3 weeks tumor implantation measured after 6 hrs; type: ADME, organism-based, Neoplasm, BT-474; parameters: dose 100 mg/kg, route intraperitoneal; conditions: tumor (human BT474 xenograft), read-out: Drug uptake
Mus musculus [20] = assay: Hepatotoxicity in ICR-SCID mouse liver assessed as alanine aminotransferase level at 150 mg/kg administered 3 times per week for 4 weeks measured after 24 hrs of last dose relative to untreated control; type: toxicity, organism-based; parameters: dose 150 mg/kg; conditions: in vivo
[21] = Drug level in tumor of human BT474 cells xenografted in ICR-SCID mouse at 150 mg/kg, ip administered after 3 weeks tumor implantation measured after 6 hrs; type: ADME, organism-based, Neoplasm, BT-474; parameters: dose 150 mg/kg, route intraperitoneal; conditions: tumor (human BT474 xenograft), read-out: Drug uptake
PC-3 = assay: Growth inhibition of human PC3 cells assessed as ATP level after 4 days; type: functional, cell-based
BT-474 [22] = assay: Induction of Cyclin D degradation in human BT474 cells xenografted in ICR-SCID mouse at 100 mg/kg, ip administered after 3 weeks tumor implantation after 6 to 48 hrs by Western blotting; type: functional, organism-based; parameters: dose 100 mg/kg
BT-474 [23] = assay: Induction of p-AKT degradation in human BT474 cells xenografted in ICR-SCID mouse at 100 mg/kg, ip administered after 3 weeks tumor implantation after 6 to 48 hrs by Western blotting; type: functional, organism-based; parameters: dose 100 mg/kg
MDA-MB-468 = assay: Growth inhibition of human MDA-MB-468 cells assessed as ATP level after 4 days; type: functional; conditions: MDA-MB-468, 96 h
[24] = Drug level in tumor of human BT474 cells xenografted in ICR-SCID mouse at 100 mg/kg, ip administered after 3 weeks tumor implantation measured after 12 hrs; type: ADME, organism-based, Neoplasm, BT-474; parameters: dose 100 mg/kg, route intraperitoneal; conditions: tumor (human BT474 xenograft), read-out: Drug uptake
Mus musculus [25] = assay: Toxicity in ICR-SCID mouse heart assessed as cholesterol level at 150 mg/kg administered 3 times per week for 4 weeks measured after 24 hrs of last dose relative to untreated control; type: organism-based; parameters: dose 150 mg/kg; conditions: in vivo
NCI-H1975 [26] = assay: Induction of mutant Cdk4 degradation in human tarceva and iressa-resistant NCI-H1975 cells at 20 to 500 nM by Western blotting; type: functional, cell-based
Mus musculus [27] = assay: Toxicity in ICR-SCID mouse heart assessed as […] level at 150 mg/kg administered 3 times per week for 4 weeks measured after 24 hrs of last dose relative to untreated control; type: organism-based; parameters: dose 150 mg/kg; conditions: in vivo
Mus musculus [28] = assay: Toxicity in ICR-SCID mouse heart assessed as cholesterol level at 100 mg/kg administered 3 times per week for 4 weeks measured after 24 hrs of last dose relative to untreated control; type: organism-based; parameters: dose 100 mg/kg; conditions: in vivo
[29] = Half life in ICR-SCID mouse; type: ADME, organism-based; conditions: in vivo
BT-474 [30] = assay: Induction of HER2 degradation in human BT474 cells xenografted in ICR-SCID mouse at 100 mg/kg, ip administered after 3 weeks tumor implantation after 6 to 48 hrs by Western blotting; type: functional, organism-based; parameters: dose 100 mg/kg
BT-474 [31] = assay: Induction of p-HER2 degradation in human BT474 cells xenografted in ICR-SCID mouse at 100 mg/kg, ip administered after 3 weeks tumor implantation after 6 to 48 hrs by Western blotting; type: functional, organism-based; parameters: dose 100 mg/kg
[32] = Drug level in tumor of human BT474 cells xenografted in ICR-SCID mouse at 100 mg/kg, ip administered after 3 weeks tumor implantation measured after 48 hrs; type: ADME, organism-based, Neoplasm, BT-474; parameters: dose 100 mg/kg, route intraperitoneal; conditions: tumor (human BT474 xenograft), read-out: Drug uptake
BT-474 [33] = assay: Induction of c-Raf degradation in human BT474 cells xenografted in ICR-SCID mouse at 100 mg/kg, ip administered after 3 weeks tumor implantation after 6 to 48 hrs by Western blotting; type: functional, organism-based; parameters: dose 100 mg/kg
HCC827 [34] = assay: Induction of mutant Cdk4 degradation in human tarceva and iressa-resistant HCC827 cells at 20 to 500 nM by Western blotting; type: functional, cell-based

concentration at 12 h [2]: 8920 ng/g | GI50 (HCT-116): 9 nM | solubility [3]: Insoluble | concentration at 48 h [5]: 4580 ng/g | bioavailability [7]: 3.4% | concentration at 6 h [9]: 6520 ng/g | concentration at 24 h [10]: 4020 ng/g | concentration at 6 h [19]: 5490 ng/g | concentration at 6 h [21]: 6180 ng/g | GI50 (MDA-MB-468): 9 nM | concentration at 12 h [24]: 5250 ng/g | half-life [29]: 2.5 h | concentration at 48 h [32]: 1500 ng/g
SMILES: O=C1OCC/C=C/CC/C=C/C(=N/OCC(=O)N2CCCCC2)Cc2c(Cl)c(O)cc(O)c21 [POCHOXIME A]
Activity (Mus musculus [1]): 0.2 mg/dL | GI50 (NCI-N87): 4 nM | Activity (NSCLC): Active | Activity (NCI-H1975 [4]): Active | Activity (HCC827 [6]): Active | Activity (Mus musculus [8]): 67.5 U/L | Activity (NCI-H1975 [11]): Active | Activity (NCI-H1975 [12]): Active | Activity (Mus musculus [13]): 191 U/L | Activity (Mus musculus [14]): 20 mg/dL | Activity (Mus musculus [15]): 0.2 mg/dL | Activity (Mus musculus [16]): 19 mg/dL | Activity (Mus musculus [17]): 51.3 U/L | Activity (NCI-H1975 [18]): Active | Activity (Mus musculus [20]): 12 U/L | Activity (PC-3): Active | Activity (BT-474 [22]): Active | Activity (BT-474 [23]): Active | Activity (Mus musculus [25]): 119 mg/dL | Activity (NCI-H1975 [26]): Active | Activity (Mus musculus [27]): 31 U/L | Activity (Mus musculus [28]): 168 mg/dL | Activity (BT-474 [30]): Active | Activity (BT-474 [31]): Active | Activity (BT-474 [33]): Active | Activity (HCC827 [34]): Active
